Tests used:
cytochrome P450 2C9 = cytochrome P450 2C9 (Homo sapiens, UniProt P11712); assay: Inhibitory activity on cytochrome P450 2C9; assay type: in vitro ADME; conditions: no significant inhibition
cytochrome P450 3A4 = cytochrome P450 3A4 (Homo sapiens, UniProt P08684); assay: Inhibitory activity on cytochrome P450 3A4; assay type: in vitro ADME; conditions: no significant inhibition
cytochrome P450 3A4, sequence (P08684 whole entry): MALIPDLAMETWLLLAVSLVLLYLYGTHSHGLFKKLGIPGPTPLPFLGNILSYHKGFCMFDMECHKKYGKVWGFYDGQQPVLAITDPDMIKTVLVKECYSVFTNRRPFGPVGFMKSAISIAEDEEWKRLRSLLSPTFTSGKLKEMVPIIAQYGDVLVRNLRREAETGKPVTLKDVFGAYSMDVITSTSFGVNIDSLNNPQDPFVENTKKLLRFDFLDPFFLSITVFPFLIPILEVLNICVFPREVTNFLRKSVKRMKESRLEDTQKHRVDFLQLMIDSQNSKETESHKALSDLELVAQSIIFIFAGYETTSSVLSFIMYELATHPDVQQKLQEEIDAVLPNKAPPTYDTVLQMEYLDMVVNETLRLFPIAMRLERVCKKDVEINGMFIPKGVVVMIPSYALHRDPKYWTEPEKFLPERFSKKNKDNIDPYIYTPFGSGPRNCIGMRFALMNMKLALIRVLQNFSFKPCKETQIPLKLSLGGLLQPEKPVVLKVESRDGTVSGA

cytochrome P450 2C9, sequence (P11712 whole entry): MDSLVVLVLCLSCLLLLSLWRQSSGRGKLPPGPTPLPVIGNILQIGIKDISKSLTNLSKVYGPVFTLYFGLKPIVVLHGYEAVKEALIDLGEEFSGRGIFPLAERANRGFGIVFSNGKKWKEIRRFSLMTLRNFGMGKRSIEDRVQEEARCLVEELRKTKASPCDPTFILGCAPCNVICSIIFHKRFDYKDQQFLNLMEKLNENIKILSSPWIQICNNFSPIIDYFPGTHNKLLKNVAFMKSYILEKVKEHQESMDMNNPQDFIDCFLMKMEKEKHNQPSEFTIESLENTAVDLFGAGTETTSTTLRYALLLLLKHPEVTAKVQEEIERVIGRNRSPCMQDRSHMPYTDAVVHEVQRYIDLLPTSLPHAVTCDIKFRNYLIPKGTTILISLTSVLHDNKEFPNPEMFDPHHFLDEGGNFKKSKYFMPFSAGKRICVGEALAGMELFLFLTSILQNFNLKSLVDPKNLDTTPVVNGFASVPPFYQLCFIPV

Structure (SMILES)	IC50 (cytochrome P450 2C9)	IC50 (cytochrome P450 3A4)
Cc1cc(Nc2ncc(Cl)c(Nc3cn(C)nc3S(=O)(=O)CC(C)C)n2)c(OC2CC2)cc1C1CCN(C)CC1 [Final product 57]	> 10 µM	> 10 µM
COCC1CC(c2cc(OC3CC3)c(Nc3ncc(Cl)c(Nc4cn(C)nc4S(=O)(=O)C(C)C)n3)cc2C)CCN1C (centres unmarked) [Final product 77]	> 10 µM	> 10 µM
COCCN1CCC(c2cc(OC3CC3)c(Nc3ncc(Cl)c(Nc4cn(C)nc4S(=O)(=O)C(C)C)n3)cc2C)CC1 [Final product 82]	> 10 µM	> 10 µM
Cc1cc(Nc2ncc(Cl)c(Nc3cn(C)nc3S(=O)(=O)C(C)C)n2)c(OC2CC2)cc1C1CCC(NS(C)(=O)=O)CC1 (centres unmarked) [Final product 205, N-(4-(4-(5-chloro-4-(3-(isopropylsulfonyl)-1-methyl-1H-pyrazol-4-amine)pyrimidin-2-amine)-5-cyclopropoxy-2-methylphenyl)cyclohexyl)methanesulfonamide]	> 10 µM	> 10 µM
